Among the data in the supplement of paper PMC10307832 are relative viability values, retold here.

Structures are written as SMILES.

The first assay has as its system NCI-H1666. Description: relative viability (nuclei count vs DMSO), 5 days (fraction); higher = more cells survive. The note with it: first compound 20 µM. The method, boiled down: (§1)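 Nuclei were stained with Hoechst during a one-step fixation (final 0.05% Triton X-100, 1% formaldehyde, 1 ug/ml Hoechst) carried out 5 days after dosing, then counted on 4× images. The cells, lung cancer lines in 1536-well plates, had been dosed by pin tool the day after seeding with one drug alone or a fixed anchor-drug dose plus five library-drug doses (not always all listed) in √10 steps. Relative viability is the nuclei count in treated wells divided by that in vehicle wells, and each value is the median of duplicate plates.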
Turning to `COCC1(CO)C(=O)C2CCN1CC2` (stereo unspecified) [PRIMA-1MET] + COc1cc2c(Oc3ccc(NC(=O)C4(C(=O)Nc5ccc(F)cc5)CC4)cc3F)ccnc2cc1OCCCN1CCOCC1 [Foretinib] (partner 0.25 µM), the relative viability amounted to 0.908.

Compound `COCC1(CO)C(=O)C2CCN1CC2` (stereo unspecified) [PRIMA-1MET] + Cc1nc(NC(=O)N2CCC[C@H]2C(N)=O)sc1-c1ccnc(C(C)(C)C(F)(F)F)c1 [Alpelisib] (partner 2 µM) showed a relative viability of 0.123.

The test system of a further assay is NCI-H1755. Described as above. The note with it: first compound 0.2 µM. The method, boiled down:
as §1
As to `COCC1(CO)C(=O)C2CCN1CC2` (stereo unspecified) [PRIMA-1MET] + CS(=O)(=O)N1CCN(Cc2cc3nc(-c4cccc5[nH]ncc45)nc(N4CCOCC4)c3s2)CC1 [Pictilisib] (partner 1 µM), the relative viability turned out to be 0.187.

Regarding `COCC1(CO)C(=O)C2CCN1CC2` (stereo unspecified) [PRIMA-1MET] + CS(=O)(=O)CCNCc1ccc(-c2ccc3ncnc(Nc4ccc(OCc5cccc(F)c5)c(Cl)c4)c3c2)o1 [Lapatinib] (partner 2 µM), the relative viability is 1.04.

For the compound `COCC1(CO)C(=O)C2CCN1CC2` (stereo unspecified) [PRIMA-1MET] + C[C@]1(O)C[C@@H](c2nc(-c3ccc4ccc(-c5ccccc5)nc4c3)c3c(N)nccn32)C1 [Linsitinib] (partner 1 µM), the relative viability turned out to be 0.979.

In turn, `COCC1(CO)C(=O)C2CCN1CC2` (stereo unspecified) [PRIMA-1MET] + COc1cc2c(Oc3ccc(NC(=O)C4(C(=O)Nc5ccc(F)cc5)CC4)cc3F)ccnc2cc1OCCCN1CCOCC1 [Foretinib] (partner 0.25 µM) showed a relative viability of 1.02.

Take `COCC1(CO)C(=O)C2CCN1CC2` (stereo unspecified) [PRIMA-1MET] + Cc1nc(NC(=O)N2CCC[C@H]2C(N)=O)sc1-c1ccnc(C(C)(C)C(F)(F)F)c1 [Alpelisib] (partner 2 µM): the relative viability is 0.974.

Still in this assay, the particulars now being: first compound 0.6325 µM.
On to `COCC1(CO)C(=O)C2CCN1CC2` (stereo unspecified) [PRIMA-1MET] + CS(=O)(=O)N1CCN(Cc2cc3nc(-c4cccc5[nH]ncc45)nc(N4CCOCC4)c3s2)CC1 [Pictilisib] (partner 1 µM), for which the relative viability was determined as 0.421.

The compound `COCC1(CO)C(=O)C2CCN1CC2` (stereo unspecified) [PRIMA-1MET] + CS(=O)(=O)CCNCc1ccc(-c2ccc3ncnc(Nc4ccc(OCc5cccc(F)c5)c(Cl)c4)c3c2)o1 [Lapatinib] (partner 2 µM) gave a relative viability of 0.901.

As for `COCC1(CO)C(=O)C2CCN1CC2` (stereo unspecified) [PRIMA-1MET] + C[C@]1(O)C[C@@H](c2nc(-c3ccc4ccc(-c5ccccc5)nc4c3)c3c(N)nccn32)C1 [Linsitinib] (partner 1 µM), the relative viability worked out at 0.946.

In the case of `COCC1(CO)C(=O)C2CCN1CC2` (stereo unspecified) [PRIMA-1MET] + COc1cc2c(Oc3ccc(NC(=O)C4(C(=O)Nc5ccc(F)cc5)CC4)cc3F)ccnc2cc1OCCCN1CCOCC1 [Foretinib] (partner 0.25 µM), the relative viability worked out at 0.932.

`COCC1(CO)C(=O)C2CCN1CC2` (stereo unspecified) [PRIMA-1MET] + Cc1nc(NC(=O)N2CCC[C@H]2C(N)=O)sc1-c1ccnc(C(C)(C)C(F)(F)F)c1 [Alpelisib] (partner 2 µM) gave a relative viability of 0.891.

The same assay, now with this note: first compound 2 µM.
Compound `COCC1(CO)C(=O)C2CCN1CC2` (stereo unspecified) [PRIMA-1MET] + CS(=O)(=O)N1CCN(Cc2cc3nc(-c4cccc5[nH]ncc45)nc(N4CCOCC4)c3s2)CC1 [Pictilisib] (partner 1 µM) gave a relative viability of 0.206.

Consider `COCC1(CO)C(=O)C2CCN1CC2` (stereo unspecified) [PRIMA-1MET] + CS(=O)(=O)CCNCc1ccc(-c2ccc3ncnc(Nc4ccc(OCc5cccc(F)c5)c(Cl)c4)c3c2)o1 [Lapatinib] (partner 2 µM), for which the relative viability turned out to be 0.846.

Consider `COCC1(CO)C(=O)C2CCN1CC2` (stereo unspecified) [PRIMA-1MET] + C[C@]1(O)C[C@@H](c2nc(-c3ccc4ccc(-c5ccccc5)nc4c3)c3c(N)nccn32)C1 [Linsitinib] (partner 1 µM), for which the relative viability amounted to 0.937.

`COCC1(CO)C(=O)C2CCN1CC2` (stereo unspecified) [PRIMA-1MET] + COc1cc2c(Oc3ccc(NC(=O)C4(C(=O)Nc5ccc(F)cc5)CC4)cc3F)ccnc2cc1OCCCN1CCOCC1 [Foretinib] (partner 0.25 µM) registered a relative viability of 0.809.

In turn, `COCC1(CO)C(=O)C2CCN1CC2` (stereo unspecified) [PRIMA-1MET] + Cc1nc(NC(=O)N2CCC[C@H]2C(N)=O)sc1-c1ccnc(C(C)(C)C(F)(F)F)c1 [Alpelisib] (partner 2 µM) showed a relative viability of 0.864.

The assay is the same for the next values; noted with them: first compound 6.325 µM.
`COCC1(CO)C(=O)C2CCN1CC2` (stereo unspecified) [PRIMA-1MET] + CS(=O)(=O)N1CCN(Cc2cc3nc(-c4cccc5[nH]ncc45)nc(N4CCOCC4)c3s2)CC1 [Pictilisib] (partner 1 µM) came in with a relative viability of 0.391.

On to `COCC1(CO)C(=O)C2CCN1CC2` (stereo unspecified) [PRIMA-1MET] + CS(=O)(=O)CCNCc1ccc(-c2ccc3ncnc(Nc4ccc(OCc5cccc(F)c5)c(Cl)c4)c3c2)o1 [Lapatinib] (partner 2 µM), for which the relative viability came out at 1.03.

Compound `COCC1(CO)C(=O)C2CCN1CC2` (stereo unspecified) [PRIMA-1MET] + C[C@]1(O)C[C@@H](c2nc(-c3ccc4ccc(-c5ccccc5)nc4c3)c3c(N)nccn32)C1 [Linsitinib] (partner 1 µM) displayed a relative viability of 1.02.

In turn, `COCC1(CO)C(=O)C2CCN1CC2` (stereo unspecified) [PRIMA-1MET] + COc1cc2c(Oc3ccc(NC(=O)C4(C(=O)Nc5ccc(F)cc5)CC4)cc3F)ccnc2cc1OCCCN1CCOCC1 [Foretinib] (partner 0.25 µM) yielded a relative viability of 0.907.

As for `COCC1(CO)C(=O)C2CCN1CC2` (stereo unspecified) [PRIMA-1MET] + Cc1nc(NC(=O)N2CCC[C@H]2C(N)=O)sc1-c1ccnc(C(C)(C)C(F)(F)F)c1 [Alpelisib] (partner 2 µM), the relative viability is 0.952.

The same assay, now with this note: first compound 20 µM.
In turn, `COCC1(CO)C(=O)C2CCN1CC2` (stereo unspecified) [PRIMA-1MET] + CS(=O)(=O)N1CCN(Cc2cc3nc(-c4cccc5[nH]ncc45)nc(N4CCOCC4)c3s2)CC1 [Pictilisib] (partner 1 µM) returned a relative viability of 0.3.

The compound `COCC1(CO)C(=O)C2CCN1CC2` (stereo unspecified) [PRIMA-1MET] + CS(=O)(=O)CCNCc1ccc(-c2ccc3ncnc(Nc4ccc(OCc5cccc(F)c5)c(Cl)c4)c3c2)o1 [Lapatinib] (partner 2 µM) yielded a relative viability of 0.907.

Regarding `COCC1(CO)C(=O)C2CCN1CC2` (stereo unspecified) [PRIMA-1MET] + C[C@]1(O)C[C@@H](c2nc(-c3ccc4ccc(-c5ccccc5)nc4c3)c3c(N)nccn32)C1 [Linsitinib] (partner 1 µM), the relative viability stood at 0.983.

Take `COCC1(CO)C(=O)C2CCN1CC2` (stereo unspecified) [PRIMA-1MET] + COc1cc2c(Oc3ccc(NC(=O)C4(C(=O)Nc5ccc(F)cc5)CC4)cc3F)ccnc2cc1OCCCN1CCOCC1 [Foretinib] (partner 0.25 µM): the relative viability was 0.867.

Turning to `COCC1(CO)C(=O)C2CCN1CC2` (stereo unspecified) [PRIMA-1MET] + Cc1nc(NC(=O)N2CCC[C@H]2C(N)=O)sc1-c1ccnc(C(C)(C)C(F)(F)F)c1 [Alpelisib] (partner 2 µM), the relative viability worked out at 0.892.

For the next assay, the system named is NCI-H1793. The description is as above. The note with it: first compound 0.2 µM. Summed up: as §1
In the case of `COCC1(CO)C(=O)C2CCN1CC2` (stereo unspecified) [PRIMA-1MET] + CS(=O)(=O)N1CCN(Cc2cc3nc(-c4cccc5[nH]ncc45)nc(N4CCOCC4)c3s2)CC1 [Pictilisib] (partner 1 µM), the relative viability amounted to 0.372.

In turn, `COCC1(CO)C(=O)C2CCN1CC2` (stereo unspecified) [PRIMA-1MET] + CS(=O)(=O)CCNCc1ccc(-c2ccc3ncnc(Nc4ccc(OCc5cccc(F)c5)c(Cl)c4)c3c2)o1 [Lapatinib] (partner 2 µM) displayed a relative viability of 0.707.

As for `COCC1(CO)C(=O)C2CCN1CC2` (stereo unspecified) [PRIMA-1MET] + C[C@]1(O)C[C@@H](c2nc(-c3ccc4ccc(-c5ccccc5)nc4c3)c3c(N)nccn32)C1 [Linsitinib] (partner 1 µM), the relative viability was determined as 0.878.

`COCC1(CO)C(=O)C2CCN1CC2` (stereo unspecified) [PRIMA-1MET] + COc1cc2c(Oc3ccc(NC(=O)C4(C(=O)Nc5ccc(F)cc5)CC4)cc3F)ccnc2cc1OCCCN1CCOCC1 [Foretinib] (partner 0.25 µM) showed a relative viability of 0.858.
